The text below walks through data of patent US9266878B2, “Phosphatidylinositol 3-kinase inhibitors” (Gilead Calistoga LLC, priority 2012, dated 2016).

Test in all cases: Enzymatic activity of PI3K isoforms, TR-FRET assay (PIP3 formation)
What all share (type): biochemical

One experiment addresses PI3Kδ (Homo sapiens (Human), UniProt O00329). The conditions noted are these: bound given in nM. A digest of the protocol: (§1)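 After 30 min at 25° C, reactions were quenched with 10 mM EDTA plus 10 nM labeled-PIP3 and 35 nM Europium-GRP-1, and TR-FRET was read (Ex 340, Em 615/665 nm). Enzymes were purified recombinant heterodimers; product PIP3 competes off the labeled tracer. Values given as IC50, nM.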

For a further experiment, the target named is PI3Kα (Homo sapiens (Human), UniProt P42336). A digest of the protocol:
as §1

In the next experiment the target is PI3Kβ (Homo sapiens (Human), UniProt P42338). In a few lines:
(§2)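 IC50 (nM) reflects inhibition of PIP3 formation by purified recombinant heterodimeric PI3K, measured as loss of TR-FRET signal. The read-out comes from competition between enzyme-made PIP3 and labelled PIP3 for binding to the GRP-1 pleckstrin homology domain.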

In another experiment the target is PI3Kγ (Homo sapiens (Human), UniProt P48736). In a few lines: as §2

Sequence of PI3Kδ (O00329 whole entry): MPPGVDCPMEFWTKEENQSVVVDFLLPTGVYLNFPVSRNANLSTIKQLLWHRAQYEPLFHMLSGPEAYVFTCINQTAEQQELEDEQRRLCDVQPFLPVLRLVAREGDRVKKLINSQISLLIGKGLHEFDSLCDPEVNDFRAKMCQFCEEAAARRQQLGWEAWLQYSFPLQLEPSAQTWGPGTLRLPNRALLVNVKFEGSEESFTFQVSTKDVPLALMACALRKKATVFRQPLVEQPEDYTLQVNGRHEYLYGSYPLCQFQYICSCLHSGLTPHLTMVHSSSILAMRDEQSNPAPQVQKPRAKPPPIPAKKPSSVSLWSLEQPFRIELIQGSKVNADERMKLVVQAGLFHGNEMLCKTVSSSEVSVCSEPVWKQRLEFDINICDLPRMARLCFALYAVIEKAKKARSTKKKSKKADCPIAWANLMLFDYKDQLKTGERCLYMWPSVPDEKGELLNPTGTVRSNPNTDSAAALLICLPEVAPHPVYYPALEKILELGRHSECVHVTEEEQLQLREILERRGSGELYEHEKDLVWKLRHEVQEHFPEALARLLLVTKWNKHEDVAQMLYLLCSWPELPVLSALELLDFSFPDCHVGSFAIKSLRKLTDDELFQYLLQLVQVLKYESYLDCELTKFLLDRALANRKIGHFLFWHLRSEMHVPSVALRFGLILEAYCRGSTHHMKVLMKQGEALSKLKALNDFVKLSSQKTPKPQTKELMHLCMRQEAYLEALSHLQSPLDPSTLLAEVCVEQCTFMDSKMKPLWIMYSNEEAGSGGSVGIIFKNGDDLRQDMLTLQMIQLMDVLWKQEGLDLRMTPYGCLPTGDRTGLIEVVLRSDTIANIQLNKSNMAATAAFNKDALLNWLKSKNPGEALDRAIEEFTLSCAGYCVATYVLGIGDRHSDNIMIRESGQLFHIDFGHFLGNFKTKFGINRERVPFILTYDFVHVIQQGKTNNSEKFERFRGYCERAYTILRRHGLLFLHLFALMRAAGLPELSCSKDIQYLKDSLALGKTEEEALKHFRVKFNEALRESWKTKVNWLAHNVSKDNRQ
Sequence of PI3Kδ (P27986 whole entry partner): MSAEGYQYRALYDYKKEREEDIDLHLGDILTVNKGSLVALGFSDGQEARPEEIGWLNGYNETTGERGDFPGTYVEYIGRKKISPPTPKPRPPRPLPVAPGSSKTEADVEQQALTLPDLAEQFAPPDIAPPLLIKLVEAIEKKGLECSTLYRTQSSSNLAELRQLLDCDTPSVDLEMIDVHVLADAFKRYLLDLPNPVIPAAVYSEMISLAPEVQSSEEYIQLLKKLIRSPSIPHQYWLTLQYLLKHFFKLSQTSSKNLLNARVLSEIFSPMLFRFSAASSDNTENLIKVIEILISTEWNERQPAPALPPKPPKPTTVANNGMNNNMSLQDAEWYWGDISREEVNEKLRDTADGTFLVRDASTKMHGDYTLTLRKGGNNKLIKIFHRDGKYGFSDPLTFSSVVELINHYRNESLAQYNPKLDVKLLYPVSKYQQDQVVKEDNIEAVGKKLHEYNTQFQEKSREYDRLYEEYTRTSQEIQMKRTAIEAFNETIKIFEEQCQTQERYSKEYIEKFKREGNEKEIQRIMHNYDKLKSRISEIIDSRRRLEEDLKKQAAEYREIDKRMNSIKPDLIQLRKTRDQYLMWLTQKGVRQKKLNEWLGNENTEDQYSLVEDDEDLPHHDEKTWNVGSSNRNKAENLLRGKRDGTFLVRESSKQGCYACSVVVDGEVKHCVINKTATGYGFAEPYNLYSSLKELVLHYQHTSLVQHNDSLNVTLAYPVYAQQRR
Sequence of PI3Kα (P42336 whole entry): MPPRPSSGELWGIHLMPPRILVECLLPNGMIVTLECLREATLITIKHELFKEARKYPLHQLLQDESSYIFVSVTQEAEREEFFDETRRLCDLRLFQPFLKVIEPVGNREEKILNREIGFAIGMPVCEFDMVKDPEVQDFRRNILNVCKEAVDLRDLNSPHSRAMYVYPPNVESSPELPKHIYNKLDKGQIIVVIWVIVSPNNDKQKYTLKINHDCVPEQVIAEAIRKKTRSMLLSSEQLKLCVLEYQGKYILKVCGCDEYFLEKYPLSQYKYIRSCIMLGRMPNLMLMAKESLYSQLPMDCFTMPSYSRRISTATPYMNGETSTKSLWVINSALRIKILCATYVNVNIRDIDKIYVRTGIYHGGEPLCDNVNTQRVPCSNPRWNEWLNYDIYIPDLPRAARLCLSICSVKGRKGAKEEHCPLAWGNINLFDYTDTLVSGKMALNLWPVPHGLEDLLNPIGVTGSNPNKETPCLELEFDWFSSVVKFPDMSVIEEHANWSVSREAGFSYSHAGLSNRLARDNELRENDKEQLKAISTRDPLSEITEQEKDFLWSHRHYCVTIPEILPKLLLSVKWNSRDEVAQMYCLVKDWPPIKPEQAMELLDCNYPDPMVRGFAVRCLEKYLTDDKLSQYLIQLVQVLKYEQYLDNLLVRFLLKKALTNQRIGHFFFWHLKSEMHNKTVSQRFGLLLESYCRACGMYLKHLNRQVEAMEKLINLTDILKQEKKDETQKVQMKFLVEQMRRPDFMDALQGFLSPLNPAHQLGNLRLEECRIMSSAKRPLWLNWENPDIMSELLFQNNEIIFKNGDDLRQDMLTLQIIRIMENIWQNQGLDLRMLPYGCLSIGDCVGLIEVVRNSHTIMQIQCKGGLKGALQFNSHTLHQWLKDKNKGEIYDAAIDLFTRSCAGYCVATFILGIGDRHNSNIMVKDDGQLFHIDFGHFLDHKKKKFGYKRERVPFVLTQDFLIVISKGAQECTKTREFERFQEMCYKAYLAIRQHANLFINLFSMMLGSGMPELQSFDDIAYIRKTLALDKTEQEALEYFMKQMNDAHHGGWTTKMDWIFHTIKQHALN
Sequence of PI3Kα (P27986 whole entry partner): as the sequence (P27986 whole entry partner) above
Sequence of PI3Kβ (P42338 whole entry, the tested form may be a part): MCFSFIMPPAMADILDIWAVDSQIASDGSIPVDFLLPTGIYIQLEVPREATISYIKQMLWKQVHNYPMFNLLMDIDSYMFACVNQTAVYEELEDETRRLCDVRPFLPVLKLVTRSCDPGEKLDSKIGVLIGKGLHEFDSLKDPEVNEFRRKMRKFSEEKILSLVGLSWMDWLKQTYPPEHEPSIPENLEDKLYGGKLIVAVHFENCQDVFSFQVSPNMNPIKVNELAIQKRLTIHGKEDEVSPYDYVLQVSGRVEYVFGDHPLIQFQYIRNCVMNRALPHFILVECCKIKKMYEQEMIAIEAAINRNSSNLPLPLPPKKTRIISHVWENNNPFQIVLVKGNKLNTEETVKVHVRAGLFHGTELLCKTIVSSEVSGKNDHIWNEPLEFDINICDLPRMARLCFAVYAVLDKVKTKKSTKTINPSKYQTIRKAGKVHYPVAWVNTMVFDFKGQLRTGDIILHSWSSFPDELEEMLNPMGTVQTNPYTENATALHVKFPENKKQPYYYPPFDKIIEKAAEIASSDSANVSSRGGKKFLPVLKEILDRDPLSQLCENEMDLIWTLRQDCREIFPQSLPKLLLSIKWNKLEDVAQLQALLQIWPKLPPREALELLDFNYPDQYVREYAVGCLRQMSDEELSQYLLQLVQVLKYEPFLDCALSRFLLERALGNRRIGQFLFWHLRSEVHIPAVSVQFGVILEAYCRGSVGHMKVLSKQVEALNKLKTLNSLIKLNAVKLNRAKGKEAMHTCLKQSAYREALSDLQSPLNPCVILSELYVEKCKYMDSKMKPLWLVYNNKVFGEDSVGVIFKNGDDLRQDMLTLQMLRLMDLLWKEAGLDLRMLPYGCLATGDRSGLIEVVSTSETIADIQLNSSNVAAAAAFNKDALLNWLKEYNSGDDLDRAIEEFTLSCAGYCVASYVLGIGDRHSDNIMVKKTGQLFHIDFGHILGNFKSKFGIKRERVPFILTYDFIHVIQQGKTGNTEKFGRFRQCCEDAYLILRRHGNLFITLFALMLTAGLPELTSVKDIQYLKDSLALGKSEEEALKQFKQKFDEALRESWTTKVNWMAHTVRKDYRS
Sequence of PI3Kβ (P27986 whole entry partner, the tested form may be a part): as the sequence (P27986 whole entry partner) above

For the compound `C[C@H](Nc1ncnc(N)c1C#Cc1cnccn1)c1nc2cccc(Cl)c2c(=O)n1-c1cccc(C#N)c1` [Compound 93a, (S)-3-(2-(1-((6-amino-5-(pyrazin-2-ylethynyl)pyrimidin-4-yl)amino)ethyl)-5-chloro-4-oxoquinazolin-3(4H)-yl)benzonitrile], the IC50 was less than 100 nM against PI3Kδ, more than 1 µM on PI3Kα (bound given in uM), more than 1 µM against PI3Kβ (bound given in uM) and more than 1 µM against PI3Kγ (bound given in uM).
Regarding `COc1cc(F)cc(C#Cc2c(N)ncnc2N[C@@H](C)c2nc3c(F)cccc3c(=O)n2-c2ccccc2)c1` [Compound 64a, (S)-2-(1-((6-amino-5-((3-fluoro-5-methoxyphenyl)ethynyl)pyrimidin-4-yl)amino)ethyl)-8-fluoro-3-phenylquinazolin-4(3H)-one], the concentration for half-maximal inhibition (IC50) against PI3Kδ is less than 100 nM; on PI3Kα (bound given in uM), more than 1 µM; against PI3Kβ (bound given in uM), more than 1 µM; against PI3Kγ (bound given in uM), more than 1 µM.
As to `C[C@H](Nc1ncnc(N)c1C#Cc1ccc(F)cn1)c1nc2cccc(Cl)c2c(=O)n1-c1cccc(CN(C)S(C)(=O)=O)c1` [Compound 129a, (S)—N-(3-(2-(1-((6-amino-5-((5-fluoropyridin-2-yl)ethynyl)pyrimidin-4-yl)amino)ethyl)-5-chloro-4-oxoquinazolin-3(4H)-yl)benzyl)-N-methylmethanesulfonamide], the IC50 was less than 100 nM on PI3Kδ, more than 1 µM against PI3Kα (bound given in uM), more than 1 µM against PI3Kβ (bound given in uM) and more than 1 µM on PI3Kγ (bound given in uM).
For the compound `C[C@H](Nc1ncnc(N)c1C#Cc1cccc(N)n1)c1nc2cccc(Cl)c2c(=O)n1-c1ccccc1` [Compound 31a, (S)-2-(1-(6-amino-5-((6-aminopyridin-2-yl)ethynyl)pyrimidin-4-ylamino)ethyl)-5-chloro-3-phenylquinazolin-4(3H)-one], the IC50 against PI3Kδ was less than 100 nM; on PI3Kα (bound given in nM), less than 0.1 µM; against PI3Kβ (bound given in nM), less than 0.1 µM; on PI3Kγ (bound given in nM), less than 0.1 µM.
Take `C[C@H](Nc1ncnc(N)c1C#Cc1cnccn1)c1nc2ccc(F)cc2c(=O)n1-c1cccc(Cl)c1` [Compound 97a, (S)-2-(1-((6-amino-5-(pyrazin-2-ylethynyl)pyrimidin-4-yl)amino)ethyl)-3-(3-chlorophenyl)-6-fluoroquinazolin-4(3H)-one]: the IC50 at PI3Kδ was less than 100 nM; against PI3Kα (bound given in uM), more than 1 µM; against PI3Kβ (bound given in uM) it was more than 1 µM; against PI3Kγ (bound given in uM), more than 1 µM.
For the compound `C[C@H](Nc1ncnc(N)c1C#Cc1ncccn1)c1nc2cccc(Cl)c2c(=O)n1-c1cc(F)cc(F)c1` [Compound 103a, (S)-2-(1-((6-amino-5-(pyrimidin-2-ylethynyl)pyrimidin-4-yl)amino)ethyl)-5-chloro-3-(3,5-difluorophenyl)quinazolin-4(3H)-one], the IC50 against PI3Kδ is less than 100 nM; on PI3Kα (bound given in uM) it was more than 1 µM; on PI3Kβ (bound given in uM) it was more than 1 µM; against PI3Kγ (bound given in uM), more than 1 µM.
Consider `Cc1cccc2nc([C@H](C)Nc3ncnc(N)c3C#Cc3ncccn3)n(-c3cc(F)cc(F)c3)c(=O)c12` [Compound 105a, (S)-2-(1-((6-amino-5-(pyrimidin-2-ylethynyl)pyrimidin-4-yl)amino)ethyl)-3-(3,5-difluorophenyl)-5-methylquinazolin-4(3H)-one], for which the IC50 against PI3Kδ was less than 100 nM; against PI3Kα (bound given in uM), more than 1 µM; against PI3Kβ (bound given in uM), more than 1 µM; against PI3Kγ (bound given in uM), more than 1 µM.
As to `C[C@H](Nc1ncnc(N)c1C#CC(C)(C)O)c1nc2cccc(Cl)c2c(=O)n1-c1cc(F)cc(F)c1` [Compound 28a, (S)-2-(1-(6-amino-5-(3-hydroxy-3-methylbut-1-ynyl)pyrimidin-4-ylamino)ethyl)-5-chloro-3-(3,5-difluorophenyl)quinazolin-4(3H)-one], the IC50 against PI3Kδ was less than 100 nM; against PI3Kα (bound given in uM), more than 1 µM; at PI3Kβ (bound given in uM) it was more than 1 µM; against PI3Kγ (bound given in uM) it was more than 1 µM.
Turning to `Cc1ccc(Cl)c2c(=O)n(-c3ccccc3)c([C@H](C)Nc3ncnc(N)c3C#Cc3ccc(F)cn3)nc12` [Compound 53a, (S)-2-(1-((6-amino-5-((5-fluoropyridin-2-yl)ethynyl)pyrimidin-4-yl)amino)ethyl)-5-chloro-8-methyl-3-phenylquinazolin-4(3H)-one], the IC50 against PI3Kδ was less than 100 nM; on PI3Kα (bound given in uM) it was more than 1 µM; against PI3Kβ (bound given in uM), more than 1 µM; against PI3Kγ (bound given in uM) it was more than 1 µM.
Turning to `C[C@H](Nc1ncnc(N)c1C#Cc1cncnc1)c1nc2cccc(Cl)c2c(=O)n1-c1cc(F)cc(F)c1` [Compound 41a, (S)-2-(1-(6-amino-5-(pyrimidin-5-ylethynyl)pyrimidin-4-ylamino)ethyl)-5-chloro-3-(3,5-difluorophenyl)quinazolin-4(3H)-one], the IC50 on PI3Kδ was less than 100 nM; on PI3Kα (bound given in uM), more than 1 µM; against PI3Kβ (bound given in uM) it was more than 1 µM; against PI3Kγ (bound given in uM), more than 1 µM.
On to `C[C@H](Nc1ncnc(N)c1C#Cc1ccccc1)c1nc2cccc(F)c2c(=O)n1-c1cccc(C#N)c1` [Compound 110a, (S)-3-(2-(1-((6-amino-5-(phenylethynyl)pyrimidin-4-yl)amino)ethyl)-5-fluoro-4-oxoquinazolin-3(4H)-yl)benzonitrile], for which the IC50 is less than 100 nM against PI3Kδ, more than 1 µM on PI3Kα (bound given in uM), more than 1 µM on PI3Kβ (bound given in uM) and more than 1 µM against PI3Kγ (bound given in uM).
For `C[C@H](Nc1ncnc(N)c1C#Cc1ccc(F)cn1)c1nc2cccc(C(F)F)c2c(=O)n1-c1cc(F)cc(F)c1` [Compound 77a, (S)-2-(1-((6-amino-5-((5-fluoropyridin-2-yl)ethynyl)pyrimidin-4-yl)amino)ethyl)-5-(difluoromethyl)-3-(3,5-difluorophenyl)quinazolin-4(3H)-one], the IC50 is less than 100 nM on PI3Kδ, more than 1 µM on PI3Kα (bound given in uM), more than 1 µM on PI3Kβ (bound given in uM) and more than 1 µM against PI3Kγ (bound given in uM).
On to `C[C@H](Nc1ncnc(N)c1C#Cc1ccc(F)cn1)c1nc2ccc(F)cc2c(=O)n1-c1cccc(C#N)c1` [Compound 94a, (S)-3-(2-(1-((6-amino-5-((5-fluoropyridin-2-yl)ethynyl)pyrimidin-4-yl)amino)ethyl)-6-fluoro-4-oxoquinazolin-3(4H)-yl)benzonitrile], for which the IC50 against PI3Kδ is less than 100 nM; against PI3Kα (bound given in uM), more than 1 µM; at PI3Kβ (bound given in uM) it was more than 1 µM; against PI3Kγ (bound given in uM), more than 1 µM.
As to `C[C@H](Nc1ncnc(N)c1C#CC(C)(C)O)c1nc2cccc(Cl)c2c(=O)n1-c1ccccc1` [Compound 29a, (S)-2-(1-(6-amino-5-(3-hydroxy-3-methylbut-1-ynyl)pyrimidin-4-ylamino)ethyl)-5-chloro-3-phenylquinazolin-4(3H)-one], the IC50 against PI3Kδ is less than 100 nM; against PI3Kα (bound given in uM), more than 1 µM; against PI3Kβ (bound given in uM) it was more than 1 µM; against PI3Kγ (bound given in uM), more than 1 µM.
On to `C[C@H](Nc1ncnc(N)c1C#C[C@@H](C)O)c1nc2cccc(Cl)c2c(=O)n1-c1cc(F)cc(F)c1` [Compound 20a, 2-((S)-1-(6-amino-5-((R)-3-hydroxybut-1-ynyl)pyrimidin-4-ylamino)ethyl)-5-chloro-3-(3,5-difluorophenyl)quinazolin-4(3H)-one], for which the IC50 against PI3Kδ was less than 100 nM; on PI3Kα (bound given in uM), more than 1 µM; against PI3Kβ (bound given in uM), more than 1 µM; at PI3Kγ (bound given in uM), more than 1 µM.
On to `C[C@H](Nc1ncnc(N)c1C#Cc1cc(C(F)F)ccn1)c1nc2cccc(Cl)c2c(=O)n1-c1ccccc1` [Compound 149a, (S)-2-(1-((6-amino-5-((4-(difluoromethyl)pyridin-2-yl)ethynyl)pyrimidin-4-yl)amino)ethyl)-5-chloro-3-phenylquinazolin-4(3H)-one], for which the IC50 on PI3Kδ is less than 100 nM; against PI3Kα (bound given in uM) it was more than 1 µM; on PI3Kβ (bound given in nM) it was less than 0.1 µM; against PI3Kγ (bound given in nM), less than 0.1 µM.
For the compound `C[C@H](Nc1ncnc(N)c1C#Cc1cnccn1)c1nc2cccc(Cl)c2c(=O)n1-c1cc(F)cc(F)c1` [Compound 85a, (S)-2-(1-((6-amino-5-(pyrazin-2-ylethynyl)pyrimidin-4-yl)amino)ethyl)-5-chloro-3-(3,5-difluorophenyl)quinazolin-4(3H)-one], the IC50 was less than 100 nM on PI3Kδ, more than 1 µM against PI3Kα (bound given in uM), more than 1 µM on PI3Kβ (bound given in uM) and more than 1 µM on PI3Kγ (bound given in uM).
With `CC[C@H](Nc1ncnc(N)c1C#Cc1cnccn1)c1nc2cccc(C)c2c(=O)n1-c1cc(F)cc(F)c1` [Compound 108a, (S)-2-(1-((6-amino-5-(pyrazin-2-ylethynyl)pyrimidin-4-yl)amino)propyl)-3-(3,5-difluorophenyl)-5-methylquinazolin-4(3H)-one], the IC50 at PI3Kδ was less than 100 nM; at PI3Kα (bound given in uM), more than 1 µM; against PI3Kβ (bound given in uM), more than 1 µM; at PI3Kγ (bound given in uM) it was more than 1 µM.
With `C[C@H](Nc1ncnc(N)c1C#C[C@@H](C)O)c1nc2cccc(Cl)c2c(=O)n1-c1ccccc1` [Compound 19a, 2-((S)-1-(6-amino-5-((R)-3-hydroxybut-1-ynyl)pyrimidin-4-ylamino)ethyl)-5-chloro-3-phenylquinazolin-4(3H)-one], the IC50 against PI3Kδ is less than 100 nM; at PI3Kα (bound given in uM), more than 1 µM; against PI3Kβ (bound given in uM), more than 1 µM; on PI3Kγ (bound given in uM), more than 1 µM.
Consider `CC[C@H](Nc1ncnc(N)c1C#Cc1cnccn1)c1nc2cccc(F)c2c(=O)n1-c1cc(F)cc(F)c1` [Compound 107a, (S)-2-(1-((6-amino-5-(pyrazin-2-ylethynyl)pyrimidin-4-yl)amino)propyl)-3-(3,5-difluorophenyl)-5-fluoroquinazolin-4(3H)-one], for which the IC50 is less than 100 nM on PI3Kδ, more than 1 µM against PI3Kα (bound given in uM), more than 1 µM on PI3Kβ (bound given in uM) and more than 1 µM against PI3Kγ (bound given in uM).
